Measurements reported in patent US20070275368A1, “Posh Associated Kinases And Related Methods” (PROTEOLOGICS, LTD., priority 2003, published 2007).

What was measured:
HIV-1 [1] = settings: H89 50 μM, HeLa SS6 cells transfected with pNLenv-1, 20 minutes after shift to 37° C.
Method: HeLa SS6 cells were transfected with pNLenv-1PTAP or pNLenv-1ATAA (L-domain mutant). Eighteen hours post-transfection, cells were transferred to 20° C. for two hours in order to inhibit transport of viral particles from the trans-Golgi (TGN) to the plasma membrane (PM). Subsequently, the PKA inhibitor, H89 (50 μM) (Biosource, Cat. No. PHZ1114) or DMSO were added to the cells and dishes were transferred to 37° C. to initiate transport from the TGN to the PM. Reverse transcriptase activity was assayed from virus-like-particles collected from cell supernatant twenty minutes later.
For transfections, HeLa SS6 cells were grown to 100% confluency in DMEM containing 10% FCS without antibiotics. Cells were then transfected with HIV-1NLenv1 (2 μg per 6-well) (Schubert et al., 1995).
Virus and virus-like particle (VLP) release by reverse transcriptase activity was determined one day after transfection with the pro-viral DNA as previously described (Adachi et al., 1986; Fukumori et al., 2000; Lenardo et al., 2002). The culture medium of virus-expressing cells was collected and centrifuged at 500×g for 10 minutes. The resulting supernatant was passed through a 0.45 μm-pore filter and the filtrate was centrifuged at 14,000×g for 2 hours at 4° C. […]

HIV-1 [2] = settings: Cartier et al., 2003; cited from earlier work
[3] = tested on: T1, Bacterially expressed recombinant maltose-binding-protein (MBP)-hPOSH
T1 sequence: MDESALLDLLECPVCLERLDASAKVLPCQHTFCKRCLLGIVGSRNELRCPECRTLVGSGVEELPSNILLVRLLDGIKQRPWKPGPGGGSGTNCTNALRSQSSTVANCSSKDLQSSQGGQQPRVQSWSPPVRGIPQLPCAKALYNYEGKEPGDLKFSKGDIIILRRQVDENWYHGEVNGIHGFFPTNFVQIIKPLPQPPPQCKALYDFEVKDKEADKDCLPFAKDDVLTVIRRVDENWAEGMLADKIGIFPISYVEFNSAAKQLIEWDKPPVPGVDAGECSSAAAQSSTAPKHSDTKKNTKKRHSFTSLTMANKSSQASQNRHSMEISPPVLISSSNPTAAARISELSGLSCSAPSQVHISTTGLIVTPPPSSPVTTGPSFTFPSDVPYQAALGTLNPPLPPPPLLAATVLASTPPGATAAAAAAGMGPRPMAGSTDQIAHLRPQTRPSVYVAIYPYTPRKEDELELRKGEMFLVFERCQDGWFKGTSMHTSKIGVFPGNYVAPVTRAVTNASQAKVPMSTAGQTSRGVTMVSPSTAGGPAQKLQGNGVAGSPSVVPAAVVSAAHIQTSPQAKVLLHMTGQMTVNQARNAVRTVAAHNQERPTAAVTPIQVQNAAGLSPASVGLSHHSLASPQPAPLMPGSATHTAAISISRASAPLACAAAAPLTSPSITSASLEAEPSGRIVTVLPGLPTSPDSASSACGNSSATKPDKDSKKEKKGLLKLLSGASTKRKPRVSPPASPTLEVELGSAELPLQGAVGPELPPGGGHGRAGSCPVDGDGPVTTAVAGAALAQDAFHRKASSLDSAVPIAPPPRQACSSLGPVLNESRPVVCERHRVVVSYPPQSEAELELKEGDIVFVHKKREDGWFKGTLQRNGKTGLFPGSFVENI

Molecule | inhibition of RT activity of virus-like-particles collected from cell supernatant (HIV-1 [1]) | block of HIV-1 release from cells (HIV-1 [2]) | phosphorylation of hPOSH (immunoblot with PKA-substrate phospho-specific antibody) [3]
O=S(=O)(NCCNCC=Cc1ccc(Br)cc1)c1cccc2cnccc12 [H89, N-[2-((Pbromocinnamyl)amino)ethyl]isoquinolinesulfonamide] | complete inhibition | able to block HIV-1 release from cells | 
PKA catalytic subunit (PKAc) |  |  | POSH is phosphorylated by PKA
